# According to US20120273764A1, “COMPOSITION FOR ORGANIC PHOTOELECTRIC DEVICE, ORGANIC PHOTOELECTRIC DEVICE USING THE SAME, AND DISPLAY DEVICE INCLUDING THE SAME” (CHEIL INDUSTRIES, INC., priority 2009, published 2012):
# Assay: Solubility evaluation in organic solvent
# Assay type: physicochemical
# Conditions: for Solubility Chlorobenzene / Solubility Toluene: 30 mg compound made up to 1.0 g solution, rolled at room temperature for 1 hour, 0.2 μm syringe filter
# Description: An organic solvent was added to 30 mg of each compound, and mixed until the total weight of each solution became 1.0 g. The mixture was rolled at room temperature for 1 hour, and then filtered with a syringe filter (Acrodisc Company) whose average pore diameter was 0.2 μm. Herein, solubility and film-forming properties were compared based on CBP, which is a generally-used host compound.
# (1) Solubility Evaluation Method: solubility was determined by removing the filtered solution of the solvent and measuring the mass of the remaining solid, and the result is shown in the following Table 1. […]
Solubility in chlorobenzene (in words) (chlorobenzene),Solubility Chlorobenzene (chlorobenzene),Solubility in toluene (in words) (toluene),Solubility Toluene (toluene),Structure (SMILES)
part of the CBP was dissolved,1 wt %,little CBP was dissolved,equal to 0.5 wt %,"c1ccc2c(c1)c1ccccc1n2-c1ccc(-c2ccc(-n3c4ccccc4c4ccccc43)cc2)cc1 [CBP, 4,4-N,N-dicarbazolebiphenyl, reference compound]"
,equal to 3 wt %,,equal to 3 wt %,c1ccc(-n2c3ccccc3c3c4c5ccccc5n(-c5ccccc5)c4ccc32)cc1 [Chem. Form. 20]
,equal to 3 wt %,,equal to 3 wt %,c1ccc(-n2c3ccccc3c3ccc4c5ccccc5n(-c5ccccc5)c4c32)cc1 [Chem. Form. 38]
,equal to 3 wt %,,equal to 3 wt %,c1ccc(-c2nnc(-c3ccc(-c4ccc5c(c4)C4(c6ccccc6-c6ccccc64)c4ccccc4-5)cc3)o2)cc1 [Chem. Form. 43]
,equal to 3 wt %,,equal to 3 wt %,c1cncc(-c2nnc(-c3cc(-c4ccc5c(c4)C4(c6ccccc6-c6ccccc64)c4ccccc4-5)cc(-c4ccc5c(c4)C4(c6ccccc6-c6ccccc64)c4ccccc4-5)c3)o2)c1 [Chem. Form. 44]
